Laboratory results as given in US20120053148A1, “INHIBITORS OF HEPATITIS C VIRUS” (GILEAD SCIENCES, INC., priority 2010, published 2012).

system: HCV Replicon IB; experiment: HCV replicon assay in Huh-7 cells, genotype 1b (Rluc luciferase readout); format: cell-based, hepatitis C virus; conditions: HCV1B replicon, Huh-7 cells, 3 days; read-out: EC50_HCV1B_

Work on COC[C@]1(O)C[C@H](Nc2nnc(-c3cc(C)c4cc(OCC(F)(F)F)cc(C(C)(C)C)c4n3)o2)C1 [Compound 504] yielded an EC50 of 9.86 nM.

same assay, conditions: Hepatitis C virus, 72 h; 10 uM; 1b-Rluc replicon, Huh-7 cells, 3 days; read-out: Inhibition @ 10 uM in 1b-Rluc

Going from Cc1cc(-c2nnc(Nc3ccccc3)[nH]2)nc2c(C(F)(F)F)cc(C3CC3)cc12 [Compound 272] to Cc1cc(-c2nnc(NCC(C)(C)CO)o2)nc2c(C(F)(F)F)cc(C3CC3)cc12 [Compound 260], the inhibition at 10 µM rises from 93.6% to 96.7%.

Compared with Cc1cc(C(=O)NCC2COCCN2)nc2c(C(F)(F)F)cc(C3CC3)cc12 (stereo not drawn) [Compound 100], Cc1cc(C(=O)NCC2CCN2)nc2c(C(F)(F)F)cc(C3CC3)cc12 (stereo not drawn) [Compound 125] is lower in inhibition at 10 µM: 99.5% for the first, 95.2% for the second.

Going from Cc1cc(C(=O)NCc2ccccn2)nc2c(C(F)(F)F)cc(OC(F)F)cc12 [Compound 187] to CCc1cc(C(F)(F)F)c2nc(C(=O)NCc3ccccn3)cc(C)c2c1 [Compound 158], the inhibition at 10 µM falls from 99.9% to 98.9%.

Going from Nc1cc(C(=O)NCC2(O)CC2)nc2c(C(F)(F)F)cc(C3CC3)cc12 [Compound 221] to Cc1cc(C(=O)NCC(C)(C)O)nc2c(C(F)(F)F)cc(C3CC3)cc12 [Compound 93], the inhibition at 10 µM rises from 98.8% to 99%.

Going from CCC(O)CNC(=O)c1cc(C)c2cc(-c3ccccc3)cc(C(F)(F)F)c2n1 (stereo not drawn) [Compound 165] to Cc1cc(C(=O)NCC2CCCCC2)nc2c(C(F)(F)F)cc(-c3ccccc3)cc12 [Compound 172], the inhibition at 10 µM falls from 96.5% to 95.2%.

First: O=C(NCC1COCCN1)c1cc(C(F)F)c2cc(C3CC3)cc(C(F)(F)F)c2n1 (stereo not drawn) [Compound 213]
Second: Cc1cc(C(=O)NCc2cnccn2)nc2c(C(F)(F)F)cc(C3CC3)cc12 [Compound 89]
The inhibition at 10 µM of the first is lower: 88.7% for the first, 100% for the second.

Going from Cc1cc(-c2nnc(NCCCN3CCCCC3)o2)nc2c(C(F)(F)F)cc(C3CC3)cc12 [Compound 256] to Cc1cc(-c2nnc(NCC3COCCO3)o2)nc2c(C(F)(F)F)cc(C3CC3)cc12 (stereo not drawn) [Compound 250], the inhibition at 10 µM rises from 99.4% to 99.9%.

Going from Cc1cc(-c2nnc(NCCCNS(C)(=O)=O)s2)nc2c(C(F)(F)F)cc(C3CC3)cc12 [Compound 296] to Cc1cc(C(=O)NCc2ccccn2)nc2c(C(F)(F)F)cc(C3CC3(F)F)cc12 (stereo not drawn) [Compound 154], the inhibition at 10 µM rises from 51.3% to 100%.

same assay, conditions: Hepatitis C virus, Huh-7, 72 h, HCV1B replicon, Huh-7 cells, 3 days; read-out: EC50_HCV1B_

Compared with Cc1cc(-c2nnc(N[C@H]3CC[C@@H](O)CC3)o2)nc2c(C(C)(C)C)cc(OCC(F)(F)F)cc12 [Compound 498], Cc1cc(-c2nnc(N[C@H]3CC[C@H](O)CC3)o2)nc2c(C(C)(C)C)cc(OCC(F)(F)F)cc12 [Compound 493] is 3.7-fold higher in EC50: 2.39 nM for the first, 8.74 nM for the second.

First: Cc1cc(C(=O)NCc2cnccn2)nc2c(-c3ccccc3)cc(C3CC3)cc12 [Compound 549]
Second: Nc1nc(C(=O)NCc2cnccn2)nc2c(C(F)(F)F)cc(-c3ccccc3)cc12 [Compound 435]
The EC50 of the first is 8.4-fold higher: 65.5 nM for the first, 7.84 nM for the second. The second is the more potent here.

Compared with Cc1cc(-c2nnc(NCC3OCCO3)o2)nc2c(C3(C)OCCO3)cc(C3CC3)cc12 [Compound 540], Cc1cc(-c2nnc(NCC3OCCO3)o2)nc2c(OC(F)(F)F)cc(C3CC3)cc12 [Compound 444] is 6.2-fold lower in EC50: 36.6 nM for the first, 5.88 nM for the second.

Cc1cc(-c2nnc(N[C@H]3C[C@@](C)(O)C3)o2)nc2c(C(C)(C)C)cc(C3CC3)cc12 [Compound 423] and Cc1cc(-c2nnc(N[C@H]3CC[C@@H](O)C3)o2)nc2c(C(C)(C)C)cc(C3CC3)cc12 [Compound 414] are within 1.5-fold of each other in EC50: 1.35 nM for the first, 1.74 nM for the second.

Going from Cc1cc(-c2nnc(NC[C@H]3CCCO3)o2)nc2c(C(C)(C)C)cc(C3CC3)cc12 [Compound 397] to Cc1cc(-c2nnc(NCC3O[C@H]4COC[C@H]4O3)o2)nc2c(C(C)(C)C)cc(C3CC3)cc12 (stereo partly drawn) [Compound 413], the EC50 rises from 3.17 nM to 311 nM (98-fold).

Compared with Cc1cc(C(=O)NCc2ncccn2)nc2c(OC(F)F)cc(OC(F)F)cc12 [Compound 447], Cc1cc(-c2nnc(NCC3(C)COC3)o2)nc2c(C(C)(C)C)cc(OCC(F)(F)F)cc12 [Compound 486] is 49-fold higher in EC50: 37.5 nM for the first, 1850 nM for the second.

Compound Cc1cc(-c2nnc(NCC3OCCS3)o2)nc2c(C(C)(C)C)cc(OCC(F)(F)F)cc12 (stereo not drawn) [Compound 479] has an EC50 of 1.14 nM.
